Here are results for 1 substance from patent publication US20030130200A1, “Small peptides and methods for treatment of asthma and inflammation” (Hisatek, LLC, priority 1997, published 2003).

This assay has as its system type II collagen arthritis. Put plainly: Induced type II collagen arthritis mouse model. Type of assay: in vivo, mouse (DBA/1 male). To be noted: HK-X TC or footpad, 0.4 or 4 mg/kg for 20 days; x-ray and histology. From the text:
A mouse model is used to evaluate the effect of the compounds of the present invention on the histological, radiographic and clinical appearance of induced type II collagen arthritis. Mice: DBA/1(2) male mice weighing 25 gms (Jackson Laboratories, Bar Harbor, Me. or B&K Universal, Kent Wash.) are used for this work. This strain of mouse is susceptible to CIA by the injection of heterologous type II collagen. Bovine Collagen (BC), Complete Freund's Adjuvant (CFA) and Incomplete Freund's Adjuvant (ICFA) can be obtained from Sigma Chemical. Antigen for immunization is processed in 0.1 M acetic acid and formulated with CFA or ICFA. […] The degree of cellularity and areas of inflammation are quantified by using digitization of histological photomicrographs and applying standard area and point counting techniques as described above. […] The average area of soft tissue (pannus) of the joint is determined by analysis of computer digitized radiographs, along with changes in density of the adjacent hard tissues by comparison with internal standards included with each radiograph. […] The significance of the differences in density and area for control and experimental mice is assessed using paired T-tests at each time point. […] Swelling of hind paws is also quantitated by measuring the thickness of the ankle from the medial to the lateral malledus with a constant tension caliper. […]

Where no end group is shown, it is not given here. The star is where a group is joined. For = O=C*

Take “f-Met-Leu-Phe-Phe (For-MLFF) [Example 9]”: the Degree of arthritis entry is “reduce the degree of arthritis”.
